# Source: ChEMBL document CHEMBL3885861, “Open TG-GATES”
# Species: Rattus norvegicus
# Assay: Open TG-GATES - Regimen: Single
# Format: toxicity, organism-based, Sprague-Dawley
# Design: regimen Single, gender Male, age 6 weeks
# Conditions: in vivo, po, 3 mg/kg, route gavage, dose level Low; for APTT / Bas / Eos / Fbg / Hb / Ht / Lym / MCH / MCHC / MCV / Mono / Neu / PT / Plat / RBC / Ret / WBC: tissue Blood; for KIDNEY_L / KIDNEY_R / KIDNEY_TOTAL: tissue Kidney; for LIVER: tissue Liver; for A/G / ALP / ALT / AST / BUN / CRE / Ca / Cl / DBIL / GLC / IP / K / LDH / Na / PL / RALB / TBIL / TC / TG / TP / gamma-GTP: tissue Plasma
smiles,measurement,setting,value
C[C@H]1C(=O)O[C@@H]2CCN3CC=C(COC(=O)[C@](C)(O)[C@]1(C)O)[C@H]23 [MONOCROTALINE],TERMINAL_BW,3 h,207 g
same,APTT,3 h,21.1 s
same,Bas,3 h,0%
same,Eos,3 h,0.8%
same,Fbg,3 h,296.8 mg/dL
same,Hb,3 h,13.5 g/dL
same,Ht,3 h,39.3%
same,Lym,3 h,80.4%
same,MCH,3 h,21.9 pg
same,MCHC,3 h,34.3%
same,MCV,3 h,63.9 fL
same,Mono,3 h,2.6%
same,Neu,3 h,16.6%
same,PT,3 h,16.6 s
same,Plat,3 h,121 x10_4/uL
same,RBC,3 h,615.6 x10_4/ul
same,Ret,3 h,8.9%
same,WBC,3 h,70.3 x10_2/uL
same,KIDNEY_L,3 h,0.9 g
same,KIDNEY_R,3 h,0.9 g
same,KIDNEY_TOTAL,3 h,1.8 g
same,LIVER,3 h,9.6 g
same,A/G,3 h,1.4
same,ALP,3 h,1405.4 IU/L
same,ALT,3 h,40.4 IU/L
same,AST,3 h,70.6 IU/L
same,BUN,3 h,14.4 mg/dL
same,CRE,3 h,0.1 mg/dL
same,Ca,3 h,10.6 mg/dL
same,Cl,3 h,106.4 meq/L
same,DBIL,3 h,0.002 mg/dL
same,GLC,3 h,176.6 mg/dL
same,IP,3 h,8.6 mg/dL
same,K,3 h,4.2 meq/L
same,LDH,3 h,232.4 IU/L
same,Na,3 h,142.8 meq/L
same,PL,3 h,141 mg/dL
same,RALB,3 h,3.1 g/dL
same,TBIL,3 h,0.014 mg/dL
same,TC,3 h,79.4 mg/dL
same,TG,3 h,73.8 mg/dL
same,TP,3 h,5.4 g/dL
same,gamma-GTP,3 h,1 IU/L
same,TERMINAL_BW,6 h,213.3 g
same,APTT,6 h,20.6 s
same,Bas,6 h,0%
same,Eos,6 h,0.8%
same,Fbg,6 h,314 mg/dL
same,Hb,6 h,13.4 g/dL
same,Ht,6 h,39.7%
same,Lym,6 h,77.6%
same,MCH,6 h,21.3 pg
same,MCHC,6 h,33.9%
same,MCV,6 h,62.8 fL
same,Mono,6 h,2.4%
same,Neu,6 h,17.8%
same,PT,6 h,16.2 s
same,Plat,6 h,124.3 x10_4/uL
same,RBC,6 h,632.2 x10_4/ul
same,Ret,6 h,9.3%
same,WBC,6 h,86.8 x10_2/uL
same,KIDNEY_L,6 h,0.9 g
same,KIDNEY_R,6 h,0.9 g
same,KIDNEY_TOTAL,6 h,1.9 g
same,LIVER,6 h,9.9 g
same,A/G,6 h,1.3
same,ALP,6 h,1354.2 IU/L
same,ALT,6 h,40 IU/L
same,AST,6 h,67.2 IU/L
same,BUN,6 h,12.2 mg/dL
same,CRE,6 h,0.1 mg/dL
same,Ca,6 h,10.7 mg/dL
same,Cl,6 h,106 meq/L
same,DBIL,6 h,0.004 mg/dL
same,GLC,6 h,175.2 mg/dL
same,IP,6 h,9.3 mg/dL
same,K,6 h,4.5 meq/L
same,LDH,6 h,200 IU/L
same,Na,6 h,141.8 meq/L
same,PL,6 h,139.8 mg/dL
same,RALB,6 h,3.1 g/dL
same,TBIL,6 h,0.01 mg/dL
same,TC,6 h,78 mg/dL
same,TG,6 h,86.2 mg/dL
same,TP,6 h,5.4 g/dL
same,gamma-GTP,6 h,1.2 IU/L
same,TERMINAL_BW,9 h,205.5 g
same,APTT,9 h,21 s
same,Bas,9 h,0%
same,Eos,9 h,0.6%
same,Fbg,9 h,291 mg/dL
same,Hb,9 h,13.3 g/dL
same,Ht,9 h,38.9%
same,Lym,9 h,79.8%
same,MCH,9 h,20.7 pg
same,MCHC,9 h,34.2%
same,MCV,9 h,60.6 fL
same,Mono,9 h,2.2%
same,Neu,9 h,16.2%
same,PT,9 h,16.4 s
same,Plat,9 h,126 x10_4/uL
same,RBC,9 h,642.2 x10_4/ul
same,Ret,9 h,8.7%
same,WBC,9 h,73.2 x10_2/uL
same,KIDNEY_L,9 h,0.9 g
same,KIDNEY_R,9 h,1 g
same,KIDNEY_TOTAL,9 h,1.9 g
same,LIVER,9 h,8.8 g
same,A/G,9 h,1.3
same,ALP,9 h,1565.2 IU/L
same,ALT,9 h,35.6 IU/L
same,AST,9 h,67 IU/L
same,BUN,9 h,12.4 mg/dL
same,CRE,9 h,0.1 mg/dL
same,Ca,9 h,10.5 mg/dL
same,Cl,9 h,106 meq/L
same,DBIL,9 h,0.006 mg/dL
same,GLC,9 h,184.4 mg/dL
same,IP,9 h,9.5 mg/dL
same,K,9 h,4 meq/L
same,LDH,9 h,197 IU/L
same,Na,9 h,142.2 meq/L
same,PL,9 h,130.6 mg/dL
same,RALB,9 h,3.1 g/dL
same,TBIL,9 h,0.02 mg/dL
same,TC,9 h,72.2 mg/dL
same,TG,9 h,48.6 mg/dL
same,TP,9 h,5.4 g/dL
same,gamma-GTP,9 h,1 IU/L
same,TERMINAL_BW,24 h,217.7 g
same,APTT,24 h,20.9 s
same,Bas,24 h,0%
same,Eos,24 h,1%
same,Fbg,24 h,305 mg/dL
same,Hb,24 h,13.2 g/dL
same,Ht,24 h,38.8%
same,Lym,24 h,80.6%
same,MCH,24 h,20.5 pg
same,MCHC,24 h,34.1%
same,MCV,24 h,60.3 fL
same,Mono,24 h,2.6%
same,Neu,24 h,15%
same,PT,24 h,16.2 s
same,Plat,24 h,117.2 x10_4/uL
same,RBC,24 h,645.2 x10_4/ul
same,Ret,24 h,7.7%
same,WBC,24 h,97.3 x10_2/uL
same,KIDNEY_L,24 h,1 g
same,KIDNEY_R,24 h,1 g
same,KIDNEY_TOTAL,24 h,2 g
same,LIVER,24 h,10.4 g
same,A/G,24 h,1.3
same,ALP,24 h,1841.2 IU/L
same,ALT,24 h,43.6 IU/L
same,AST,24 h,70.2 IU/L
same,BUN,24 h,16.4 mg/dL
same,CRE,24 h,0.1 mg/dL
same,Ca,24 h,10.8 mg/dL
same,Cl,24 h,106.4 meq/L
same,DBIL,24 h,0.006 mg/dL
same,GLC,24 h,178 mg/dL
same,IP,24 h,7.6 mg/dL
same,K,24 h,4.2 meq/L
same,LDH,24 h,220.2 IU/L
same,Na,24 h,142.2 meq/L
same,PL,24 h,160.2 mg/dL
same,RALB,24 h,3.2 g/dL
same,TBIL,24 h,0.006 mg/dL
same,TC,24 h,81.2 mg/dL
same,TG,24 h,102.8 mg/dL
same,TP,24 h,5.6 g/dL
same,gamma-GTP,24 h,1 IU/L
